Experimental findings from ChEMBL document CHEMBL5465560, “Selectivity Literature for EUbOPEN Chemogenomic Library” (2024) are described below.

Experiment [1] deals with Mitogen-activated protein kinase 11 (Homo sapiens) (UniProt Q15759). Conditions: at 10 µM.
Experiment [2] addresses Casein kinase I isoform gamma-3 (Homo sapiens) (UniProt Q9Y6M4). As to conditions: at 10 µM.
Experiment [3] has as its target SRSF protein kinase 2 (Homo sapiens) (UniProt P78362). Briefly: Selectivity interaction (KinomeScan (DiscoverX)) EUB0000607a SRPK2. Conditions: at 10 µM.
Experiment [4] concerns the target Tyrosine-protein kinase Srms (Homo sapiens) (UniProt Q9H3Y6). Briefly: Selectivity interaction (Kinase panel (Invitrogen)) EUB0000639a SRMS. As to conditions: at 200 nM.
Experiment [5] relates to Tyrosine-protein kinase ABL1 (Homo sapiens), P00519 [F317L]. Nature of the experiment: Selectivity interaction (KinomeScan (DiscoverX)) EUB0000045b ABL1. As to conditions: at 10 µM.
Tyrosine-protein kinase ABL1 (Homo sapiens), P00519 [F317L], sequence (P00519 whole entry F317L): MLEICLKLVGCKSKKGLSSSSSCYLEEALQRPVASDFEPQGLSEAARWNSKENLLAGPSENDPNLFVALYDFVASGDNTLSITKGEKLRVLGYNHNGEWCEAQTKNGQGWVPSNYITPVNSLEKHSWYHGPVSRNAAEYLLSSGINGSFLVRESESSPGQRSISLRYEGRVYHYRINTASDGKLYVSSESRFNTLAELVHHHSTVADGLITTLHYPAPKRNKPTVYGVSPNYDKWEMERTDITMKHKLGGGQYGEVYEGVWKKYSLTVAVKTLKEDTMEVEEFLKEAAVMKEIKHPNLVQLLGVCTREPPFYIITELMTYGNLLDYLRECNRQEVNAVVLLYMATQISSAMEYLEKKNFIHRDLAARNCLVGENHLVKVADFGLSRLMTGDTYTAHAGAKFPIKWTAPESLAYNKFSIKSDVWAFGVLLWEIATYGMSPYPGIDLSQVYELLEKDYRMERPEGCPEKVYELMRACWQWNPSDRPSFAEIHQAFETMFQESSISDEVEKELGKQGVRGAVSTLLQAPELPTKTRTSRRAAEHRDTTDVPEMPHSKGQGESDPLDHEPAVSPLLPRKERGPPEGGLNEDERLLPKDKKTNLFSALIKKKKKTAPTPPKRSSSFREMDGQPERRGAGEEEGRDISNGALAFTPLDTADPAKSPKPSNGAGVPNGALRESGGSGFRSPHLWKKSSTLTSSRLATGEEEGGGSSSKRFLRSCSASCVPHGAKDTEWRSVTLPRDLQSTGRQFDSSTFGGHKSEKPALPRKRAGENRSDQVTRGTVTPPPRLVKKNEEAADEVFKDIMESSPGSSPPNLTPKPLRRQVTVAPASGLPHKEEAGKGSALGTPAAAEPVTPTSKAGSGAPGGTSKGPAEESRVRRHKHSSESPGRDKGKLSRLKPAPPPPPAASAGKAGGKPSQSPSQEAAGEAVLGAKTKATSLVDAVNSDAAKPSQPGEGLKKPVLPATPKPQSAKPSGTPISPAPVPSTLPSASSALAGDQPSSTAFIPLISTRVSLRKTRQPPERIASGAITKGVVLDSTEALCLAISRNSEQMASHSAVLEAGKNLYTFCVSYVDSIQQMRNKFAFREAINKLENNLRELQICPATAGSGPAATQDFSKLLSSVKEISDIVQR
For experiment [6], the target named is Ribosomal protein S6 kinase alpha-5 (Homo sapiens) (UniProt O75582). Nature of the experiment: Selectivity interaction (KinomeScan (DiscoverX)) EUB0000045b RPS6KA5.
Ribosomal protein S6 kinase alpha-5 (Homo sapiens), sequence (O75582 whole entry, looked up): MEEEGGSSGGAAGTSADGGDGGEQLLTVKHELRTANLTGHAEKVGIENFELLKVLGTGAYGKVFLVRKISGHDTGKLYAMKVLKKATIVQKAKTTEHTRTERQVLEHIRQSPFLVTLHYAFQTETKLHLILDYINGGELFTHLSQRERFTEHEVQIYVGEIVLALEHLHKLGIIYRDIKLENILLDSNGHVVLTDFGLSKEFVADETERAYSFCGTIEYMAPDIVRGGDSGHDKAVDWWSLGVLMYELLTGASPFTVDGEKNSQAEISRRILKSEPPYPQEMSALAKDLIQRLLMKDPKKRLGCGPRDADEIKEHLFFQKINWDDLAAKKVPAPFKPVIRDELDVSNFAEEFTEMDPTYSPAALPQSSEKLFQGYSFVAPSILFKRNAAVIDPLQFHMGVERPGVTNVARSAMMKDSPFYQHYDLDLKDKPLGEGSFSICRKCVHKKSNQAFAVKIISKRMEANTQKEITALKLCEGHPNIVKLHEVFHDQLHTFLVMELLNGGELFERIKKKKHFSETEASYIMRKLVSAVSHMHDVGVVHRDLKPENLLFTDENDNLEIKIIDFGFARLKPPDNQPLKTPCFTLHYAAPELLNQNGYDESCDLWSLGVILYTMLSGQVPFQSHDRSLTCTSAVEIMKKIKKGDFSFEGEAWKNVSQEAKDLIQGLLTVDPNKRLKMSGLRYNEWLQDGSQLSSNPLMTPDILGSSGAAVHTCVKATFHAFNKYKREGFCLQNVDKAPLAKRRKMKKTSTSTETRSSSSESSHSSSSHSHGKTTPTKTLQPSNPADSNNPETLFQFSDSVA
For experiment [7], the target named is RAC-gamma serine/threonine-protein kinase (Homo sapiens, UniProt Q9Y243). Briefly: Selectivity interaction (KinomeScan (DiscoverX)) EUB0000045b AKT3.
RAC-gamma serine/threonine-protein kinase, sequence (Q9Y243 whole entry): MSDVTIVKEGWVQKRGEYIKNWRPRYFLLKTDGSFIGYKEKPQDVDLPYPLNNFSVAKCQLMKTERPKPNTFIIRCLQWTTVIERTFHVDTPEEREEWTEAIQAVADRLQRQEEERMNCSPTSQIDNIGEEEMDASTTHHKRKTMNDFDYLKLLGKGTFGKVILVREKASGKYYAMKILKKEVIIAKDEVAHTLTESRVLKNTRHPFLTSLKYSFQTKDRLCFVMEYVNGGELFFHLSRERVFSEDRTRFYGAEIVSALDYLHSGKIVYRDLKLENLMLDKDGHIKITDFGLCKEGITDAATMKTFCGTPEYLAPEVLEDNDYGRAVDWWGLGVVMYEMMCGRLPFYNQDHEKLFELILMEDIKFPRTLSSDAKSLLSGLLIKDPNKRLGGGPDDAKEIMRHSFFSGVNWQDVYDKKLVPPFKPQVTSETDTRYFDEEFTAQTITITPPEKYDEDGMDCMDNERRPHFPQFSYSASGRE
For experiment [8], the target named is Homeodomain-interacting protein kinase 3 (Homo sapiens, UniProt Q9H422). Nature of the experiment: Selectivity interaction (ProQinase) EUB0000171b HIPK3.
Homeodomain-interacting protein kinase 3, sequence (Q9H422 whole entry, looked up): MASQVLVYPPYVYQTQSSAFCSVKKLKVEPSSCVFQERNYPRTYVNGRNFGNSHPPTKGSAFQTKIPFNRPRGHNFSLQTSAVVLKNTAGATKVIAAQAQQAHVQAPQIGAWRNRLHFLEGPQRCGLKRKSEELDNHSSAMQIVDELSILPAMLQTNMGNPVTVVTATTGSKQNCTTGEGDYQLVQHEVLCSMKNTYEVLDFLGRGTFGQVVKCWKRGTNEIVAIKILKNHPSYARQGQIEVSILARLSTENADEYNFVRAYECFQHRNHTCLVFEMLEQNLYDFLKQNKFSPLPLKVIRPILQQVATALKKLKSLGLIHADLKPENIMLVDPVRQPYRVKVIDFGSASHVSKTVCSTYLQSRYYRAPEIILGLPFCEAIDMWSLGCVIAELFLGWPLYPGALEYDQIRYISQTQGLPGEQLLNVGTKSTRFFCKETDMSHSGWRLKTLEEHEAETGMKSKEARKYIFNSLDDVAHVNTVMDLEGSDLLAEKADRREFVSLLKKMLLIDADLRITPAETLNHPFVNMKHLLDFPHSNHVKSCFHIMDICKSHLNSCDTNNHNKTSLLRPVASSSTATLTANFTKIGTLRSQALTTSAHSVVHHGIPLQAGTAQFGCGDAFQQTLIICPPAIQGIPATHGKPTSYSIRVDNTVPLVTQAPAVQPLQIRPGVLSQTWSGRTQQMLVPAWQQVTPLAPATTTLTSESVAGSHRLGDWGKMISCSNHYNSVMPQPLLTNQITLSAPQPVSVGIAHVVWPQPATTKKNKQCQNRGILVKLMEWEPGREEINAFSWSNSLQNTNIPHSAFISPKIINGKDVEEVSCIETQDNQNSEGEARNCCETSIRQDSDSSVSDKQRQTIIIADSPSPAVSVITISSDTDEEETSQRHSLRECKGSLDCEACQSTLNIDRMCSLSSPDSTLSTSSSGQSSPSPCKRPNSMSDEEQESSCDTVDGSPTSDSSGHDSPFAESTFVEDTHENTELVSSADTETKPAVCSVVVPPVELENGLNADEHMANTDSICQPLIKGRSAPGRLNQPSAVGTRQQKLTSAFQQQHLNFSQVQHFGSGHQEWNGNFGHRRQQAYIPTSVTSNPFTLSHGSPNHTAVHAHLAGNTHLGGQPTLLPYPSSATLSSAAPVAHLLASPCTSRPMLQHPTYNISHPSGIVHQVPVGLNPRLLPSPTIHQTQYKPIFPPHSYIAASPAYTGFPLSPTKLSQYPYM
The target in experiment [9] is T1, Mitogen-activated protein kinase kinase kinase 5 (Homo sapiens) (UniProt Q99683).
T1 sequence (whole entry): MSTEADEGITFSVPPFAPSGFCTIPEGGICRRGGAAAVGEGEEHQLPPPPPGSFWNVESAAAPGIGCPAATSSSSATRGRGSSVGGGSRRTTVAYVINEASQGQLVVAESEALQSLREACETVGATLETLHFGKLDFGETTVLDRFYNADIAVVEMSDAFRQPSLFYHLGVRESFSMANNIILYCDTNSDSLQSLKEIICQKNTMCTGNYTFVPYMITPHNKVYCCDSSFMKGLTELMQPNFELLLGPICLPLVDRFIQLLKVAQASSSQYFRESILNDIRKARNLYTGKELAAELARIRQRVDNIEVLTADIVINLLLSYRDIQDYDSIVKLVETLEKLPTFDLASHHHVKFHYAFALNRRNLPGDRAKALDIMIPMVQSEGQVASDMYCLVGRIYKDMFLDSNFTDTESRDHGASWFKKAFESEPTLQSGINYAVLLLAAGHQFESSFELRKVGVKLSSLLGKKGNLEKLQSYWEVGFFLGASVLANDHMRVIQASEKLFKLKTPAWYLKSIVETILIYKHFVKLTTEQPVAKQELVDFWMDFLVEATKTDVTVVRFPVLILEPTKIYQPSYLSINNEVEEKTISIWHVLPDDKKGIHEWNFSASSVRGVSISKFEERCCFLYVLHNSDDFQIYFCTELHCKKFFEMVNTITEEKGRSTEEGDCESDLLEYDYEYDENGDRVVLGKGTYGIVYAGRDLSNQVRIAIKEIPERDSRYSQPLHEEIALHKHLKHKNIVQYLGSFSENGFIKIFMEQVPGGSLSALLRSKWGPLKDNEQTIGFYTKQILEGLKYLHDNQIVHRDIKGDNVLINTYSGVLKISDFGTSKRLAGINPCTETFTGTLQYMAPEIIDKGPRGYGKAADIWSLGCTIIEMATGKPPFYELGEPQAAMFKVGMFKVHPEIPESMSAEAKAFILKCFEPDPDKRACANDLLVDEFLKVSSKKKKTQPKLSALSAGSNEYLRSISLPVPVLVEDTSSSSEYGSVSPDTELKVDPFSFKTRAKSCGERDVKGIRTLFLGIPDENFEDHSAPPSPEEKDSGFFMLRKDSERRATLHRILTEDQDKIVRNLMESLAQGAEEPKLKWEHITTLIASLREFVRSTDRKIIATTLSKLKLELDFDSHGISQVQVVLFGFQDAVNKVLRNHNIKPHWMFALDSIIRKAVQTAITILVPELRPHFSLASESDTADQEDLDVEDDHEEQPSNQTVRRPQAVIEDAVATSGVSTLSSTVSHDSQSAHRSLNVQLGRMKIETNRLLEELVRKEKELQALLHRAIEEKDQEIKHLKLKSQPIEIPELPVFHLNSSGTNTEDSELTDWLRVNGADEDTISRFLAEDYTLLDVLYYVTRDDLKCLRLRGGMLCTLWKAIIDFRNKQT
Briefly: Selectivity interaction (KinomeScan (DiscoverX)) EUB0000655a MAP3K5. Conditions: at 10 µM.

Experiment [10] deals with Tyrosine-protein kinase Lck (Homo sapiens, UniProt P06239). Briefly: Selectivity interaction (KinomeScan (DiscoverX)) EUB0000092b LCK. Conditions: at 10 µM.
Tyrosine-protein kinase Lck, sequence (P06239 2-509 limits assumed): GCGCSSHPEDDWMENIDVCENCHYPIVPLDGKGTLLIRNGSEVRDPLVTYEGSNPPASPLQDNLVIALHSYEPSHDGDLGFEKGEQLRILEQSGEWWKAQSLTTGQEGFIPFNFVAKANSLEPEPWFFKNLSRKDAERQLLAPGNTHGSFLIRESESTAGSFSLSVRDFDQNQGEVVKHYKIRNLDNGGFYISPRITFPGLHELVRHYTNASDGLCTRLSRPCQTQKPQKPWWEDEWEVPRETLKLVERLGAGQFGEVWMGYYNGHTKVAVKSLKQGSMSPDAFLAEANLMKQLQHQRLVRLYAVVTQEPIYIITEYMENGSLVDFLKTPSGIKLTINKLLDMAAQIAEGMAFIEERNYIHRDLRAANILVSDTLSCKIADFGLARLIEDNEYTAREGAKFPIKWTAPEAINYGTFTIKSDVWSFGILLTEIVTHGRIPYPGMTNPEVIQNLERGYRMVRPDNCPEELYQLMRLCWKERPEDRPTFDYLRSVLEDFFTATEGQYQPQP
The target of experiment [11] is Macrophage-stimulating protein receptor (Homo sapiens, UniProt Q04912). Briefly: Selectivity interaction (KinomeScan (DiscoverX)) EUB0000092b MST1R. As to conditions: at 10 µM.
Experiment [12] concerns the target Serine/threonine-protein kinase PAK 3 (Homo sapiens) (UniProt O75914). Nature of the experiment: Selectivity interaction (KinomeScan (DiscoverX)) EUB0000229b PAK3. Conditions: at 10 µM.

Tyrosine-protein kinase Srms (Homo sapiens), sequence (Q9H3Y6 whole entry): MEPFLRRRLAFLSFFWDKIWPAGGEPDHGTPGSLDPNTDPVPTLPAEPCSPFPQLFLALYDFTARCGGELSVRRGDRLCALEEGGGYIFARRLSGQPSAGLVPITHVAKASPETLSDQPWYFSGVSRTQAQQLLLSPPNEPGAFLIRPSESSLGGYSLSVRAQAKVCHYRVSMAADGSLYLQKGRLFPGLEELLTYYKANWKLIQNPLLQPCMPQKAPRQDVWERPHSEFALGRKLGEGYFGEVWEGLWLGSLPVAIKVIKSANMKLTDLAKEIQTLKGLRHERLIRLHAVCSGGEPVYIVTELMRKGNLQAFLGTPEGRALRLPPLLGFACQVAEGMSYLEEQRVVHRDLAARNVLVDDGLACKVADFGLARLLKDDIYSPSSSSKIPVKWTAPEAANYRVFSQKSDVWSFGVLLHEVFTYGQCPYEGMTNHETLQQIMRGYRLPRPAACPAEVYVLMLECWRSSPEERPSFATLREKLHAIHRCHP
Casein kinase I isoform gamma-3 (Homo sapiens), sequence (Q9Y6M4 whole entry, looked up, canonical isoform): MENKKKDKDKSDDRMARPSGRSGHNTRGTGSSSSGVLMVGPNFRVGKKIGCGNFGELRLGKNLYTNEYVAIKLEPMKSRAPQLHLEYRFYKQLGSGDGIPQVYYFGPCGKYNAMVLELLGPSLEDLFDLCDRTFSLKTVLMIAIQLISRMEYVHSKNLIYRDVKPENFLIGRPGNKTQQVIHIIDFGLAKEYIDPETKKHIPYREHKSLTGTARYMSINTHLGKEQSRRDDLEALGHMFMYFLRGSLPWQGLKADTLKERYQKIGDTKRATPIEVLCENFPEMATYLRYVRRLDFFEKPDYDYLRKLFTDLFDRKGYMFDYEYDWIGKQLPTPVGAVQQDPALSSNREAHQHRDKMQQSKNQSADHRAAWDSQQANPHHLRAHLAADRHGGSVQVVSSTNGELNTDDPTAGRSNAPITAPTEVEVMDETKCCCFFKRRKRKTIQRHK

In the case of `CCN(CC)CCCCNc1ncc2cc(-c3cc(OC)cc(OC)c3)c(NC(=O)NC(C)(C)C)nc2n1`, the % of control in experiment [1] and in experiment [2] was 100% each time.
Compound `CNC(=O)Nc1ccc(-c2nc(N3CC4CCC(C3)O4)c3cnn(C4CCC5(CC4)OCCO5)c3n2)cc1` returned a % of control in experiment [3] of 90%.
With `CC[C@@H]1[C@H](F)C(=O)N[C@@H]1COc1nccc2cc(C(N)=O)c(OC)cc12` [ZIMLOVISERTIB], in experiment [4], the % of inhibition was 6.49%.
For the compound `C=CC(=O)Nc1cc(-n2c(=O)ccc3cnc4ccc(-c5ccc(NS(C)(=O)=O)cc5)cc4c32)ccc1C`, the % of control in [5] was determined as 75%; in experiment [6] (at 1 µM) it was 100%; in experiment [6] (at 10 µM), 100%; in experiment [7] (at 1 µM) it was 75%; in experiment [7] (at 10 µM) it was 100%.
On to `C=CC(=O)Nc1cccc(C(=O)Nc2ccc(Nc3cc(-c4[nH]c(SC)nc4C)ccn3)cc2)c1`, for which the % of control in experiment [8] (at 1 µM) was found to be 93%; in [8] (at 5 µM), 90%.
`CN(C)CCOc1ccc(-c2nc(-c3ccncc3)c(-c3ccc4c(c3)CC/C4=N\O)[nH]2)cc1` came in with a % of control in experiment [9] of 94%.
As for `CCC(=O)N1CCN(c2ccc(-n3c(=O)ccc4cnc5ccc(-c6cnc7ccccc7c6)cc5c43)cc2C(F)(F)F)CC1`, the values for the % of control in [10] and in [11] were 77% and 55%, respectively.
In turn, `COc1cc(N(C)c2ccnc3ccc(C(F)(F)F)cc23)cc(OC)c1OC` gave a % binding in [12] of 96%.
